Laboratory results published in publication PMC5629014, “Assessment of sesquiterpene lactones isolated from Mikania plants species for their potential efficacy against Trypanosoma cruzi and Leishmania sp” (PLoS Neglected Tropical Diseases, 2017).
Values after ≈ are worked out from the molar mass of the structure shown. “Also recorded” adds a separate entry of the source. Read-outs that look alike come from different tables or passages of the source.

Tests used:
[1] = tested on: T. cruzi bloodstream trypomastigotes; experiment: Trypanocidal effect on bloodstream trypomastigotes, live parasite count in Neubauer chamber; format: cell-based; conditions: Trypanosoma cruzi; 24 h, remaining live parasites counted
Protocol: (§1) Trypanosoma cruzi epimastigotes (RA strain) were grown in a biphasic medium. Cultures were routinely maintained by weekly passages at 28°C. T. cruzi bloodstream trypomastigotes (RA strain) and the recombinant Tulahuen strain expressing β-galactosidase (Tul-β-Gal) were obtained from infected CF1 mice by cardiac puncture at the peak of parasitemia on day 15 post-infection. Trypomastigotes were routinely maintained by infecting 21-day-old CF1 mice.
The trypanocidal effect of the purified compounds was also tested on bloodstream trypomastigotes. Briefly, mouse blood containing trypomastigotes was diluted in complete RPMI -1640 Medium (Sigma-Aldrich R6504- Batch 029K83102) with 10% (vol/vol) fetal calf serum (FCS) (Internegocios) to adjust the parasite concentration to 3 × 10^5/mL. Parasites were seeded in duplicate in a 96-well microplate in the presence of each compound (0–50 μg/mL) or controls and incubated at 4 °C for 24 h. The number of remaining living parasites in each sample was determined in 5 μL of cell suspension diluted 1/5 in lysis buffer (0.75% NH4Cl, 0.2% Tris, pH 7.2) and counted in a Neubauer chamber. Benznidazole was used as positive control.

T. cruzi amastigotes = experiment: Inhibition of intracellular amastigotes, β-galactosidase transfected parasites in Raw 264.7 cells (CPRG); format: cell-based; conditions: Trypanosoma cruzi
Protocol: as §1
The effect of each compound on intracellular forms of T. cruzi was assayed using β-galactosidase transfected parasites. Briefly, 96-well plates were seeded with Raw 264.7 cells at 5x10^3 per well in […] of culture medium and incubated for 24 h at 37 °C in a 5% CO2 atmosphere. Cells were washed and infected with transfected blood trypomastigotes expressing β-galactosidase at a parasite/cell ratio of 10:1. After 12 h of co- culture, plates were washed twice with PBS to remove unbound parasites and each pure compound was added at different concentrations (0.001–50 μg/mL) in 150 μL of fresh complete RPMI medium without phenol red (Gibco, Rockville, MD). Controls included infected untreated cells (100% infection control) and uninfected cells (0% infection control). The assay was developed 5 days later by the addition of chlorophenol red-β-D-galactopyranoside (CPRG) (100 mM) and 1% Nonidet P40. Plates were then incubated for 4–6 h at 37 °C and the absorbance was measured at 595 nm in a microplate reader (Bio-Rad Laboratories, Hercules, CA). The percentage inhibition was calculated as 100–{[(absorbance of treated infected cells)/(absorbance of untreated infected cells) x 100} and the IC50 value was estimated. Benznidazole was used as positive control.

[2] = tested on: T. cruzi epimastigotes (RA strain); experiment: T. cruzi epimastigotes growth inhibition, [3H] thymidine uptake assay; format: cell-based, Trypanosoma cruzi; conditions: for IC50: Trypanosoma cruzi, read-out: IC50 on T. cruzi epimastigotes
Protocol: as §1
The evaluation of T. cruzi epimastigotes growth inhibition was performed by the [^3H] thymidine uptake assay. Briefly, exponentially growing epimastigotes were adjusted to a cell density of 1.5 × 10^6 parasites/mL in fresh medium. Parasites were allowed to grow for 72 h at 28°C in medium with or without different concentrations of each compound (0–5 μg/mL) in triplicate. Percent of inhibition was calculated as {100 − [(cpm of treated parasites/ cpm of untreated parasites) × 100]}. The compound concentration at which the parasite growth was inhibited by 50% (IC50) was determined after 72 h. Benznidazole was used as positive control.

T. cruzi (RA strain) = experiment: Animal model of T. cruzi infection (acute, lethal dose); format: in vivo, Balb/c mice
Protocol: Inbred male Balb/c mice were nursed at the Departamento de Microbiología, Facultad de Medicina, Universidad de Buenos Aires. Groups of six Balb/c male mice (6 to 8 weeks old) were infected with 1000 bloodstream T. cruzi trypomastigotes by the intraperitoneal route. Five days after infection, the presence of circulating parasites was confirmed by the microhematocrit method (Sülsen et al., 2013). Mice were treated daily with compound 3 or benznidazole (1 mg/kg of body weight/day) for five consecutive days (days 4 to 8 post-infection) by the intraperitoneal route. Drugs were resuspended in DMSO and then adjust to concentration in 0.1 M phosphate buffered saline (PBS, pH 7.2); this vehicle was also employed as a negative control. Levels of parasitemia were monitored every 2 days in 5 μL of blood diluted 1:5 in lysis buffer (0.75% NH4Cl, 0.2% Tris, pH 7.2) by counting parasites in a Neubauer chamber. The number of animal deaths was recorded daily.
The weight of each animal was evaluated during the acute phase of infection. Results were expressed as the ratio between the weight on each day and the weight registered the day of the infection multiplied by 100.
Parasitemia and weight loss were analyzed using a non parametric test: Mann-Whitney test. The survival curves were analyzed with a log rank test.

[3] = tested on: Leishmania braziliensis promastigotes (MHOM/BR/75/M2903 strain); experiment: Growth inhibition of Leishmania braziliensis promastigotes, MTT method; format: cell-based; conditions: 72 h, read-out: IC50 on L. braziliensis promastigotes
Protocol: Leishmania braziliensis promastigotes (MHOM/BR/75/M2903 strain) were grown in liver infusion tryptose medium LIT, which was prepared as follows: 5 g/L liver infusion (Sigma 2023-072K1066), 5 g/L tryptose (Britania), 2 g/L glucose (Sigma), 68 mM NaCl, 5.4 mM KCl, 22 mM HPO4Na2, supplemented with 20 mg/L hemin (Sigma) and 10% (vol/vol) fetal calf serum (FCS) (Internegocios). Culture maintenance was performed by weekly passages at 26°C.
The growth inhibition of Leishmania braziliensis promastigotes was evaluated by the MTT method. Parasites (5x10^6) were settled at a final volume of 150 μL in a flat-bottom 96-well microplate and cultured at 37°C in a 5% CO2 atmosphere in the absence or presence of increasing concentrations of the pure compounds. After 72 h, 3-(4,5- dimethylthiazol-2-yl)-2,5-diphenyltetrazolium bromide (MTT) was added at a final concentration of 1.5 mg/mL. Plates were incubated for 2 h at 37°C. The purple formazan crystals formed were completely dissolved by adding 150 μL of ethanol and the absorbance was read at 595 nm in a microplate reader. The inhibition percentage was calculated as {100 − [(DO595nm of treated parasites/ DO595nm of untreated parasites) × 100]}. Compounds were tested at 0–50 μg/mL. Amphotericin B was used as positive control.

[4] = Host cell toxicity, trypan blue exclusion method; format: cell-based, human; conditions: human
Protocol: (§2) The human monocyte leukemia THP1 (ATCC TIB202) cell line were obtained from the vendor. Cells were thawed, expanded and settled at a concentration 5x10^5 in a final volume of 150 μL in a flat-bottom 96-well microplate and cultured at 37°C in a 5% CO2 atmosphere in the absence or presence of increasing concentrations of the pure compounds. After 24 h, the cell viability was determined by the trypan blue exclusion method in the absence and presence of increasing concentrations of the compounds [26]. The 50% cytotoxic concentration (CC50) and the selectivity index (SI = CC50/IC50) were determined for each compound for T. cruzi trypomastigotes and amastigotes.

[5] = tested on: human monocyte leukemia THP1 cells; experiment: Host cell toxicity, trypan blue exclusion method; format: cell-based; conditions: 24 h
Protocol: as §2

IL-12 = experiment: Cytokine production by macrophages, IL-12 sandwich ELISA; format: cell-based; conditions: RAW 264.7 macrophages, 24 h
Protocol: […] After 24 h, supernatants were collected and stored at -80 °C until cytokine analysis. IL-12 and TNF-α levels were determined by sandwich ELISA (BD Pharmingen, and R&D System, Minneapolis, MN, respectively) according to manufacturer’s instructions. Supplied standards were used to generate a standard curve.

TNF-α = experiment: Cytokine production by macrophages, TNF-α sandwich ELISA; format: cell-based; conditions: RAW 264.7 macrophages, 25 μg/mL, 24 h, p<0.01
Protocol: RAW 264.7 (ATCC TIB71) macrophage cell line were obtained from ATCC and cultured (1×10^5) in duplicate in 24-well plates in the presence of 2.5 or 25 μg/mL of Compound 3, LPS (10 μg/mL) plus INF-γ (0.30 μg/mL) (positive control), or medium alone (negative control). After 24 h, supernatants were collected and stored at -80 °C until cytokine analysis. IL-12 and TNF-α levels were determined by sandwich ELISA (BD Pharmingen, and R&D System, Minneapolis, MN, respectively) according to manufacturer’s instructions. Supplied standards were used to generate a standard curve.

[6] = RAW264.7, β-galactosidase expressing T. cruzi in mammalian cells, read-out: IC50 on T. cruzi amastigotes
[7] = 72 h, 28°C, [3H] thymidine uptake
[8] = infected Balb/c mice, 1 mg/kg/day i.p., days 4 to 8 post-infection
[9] = THP1 (ATCC TIB202) monocyte leukemia cells

**Q.** For O=C(Cn1ccnc1[N+](=O)[O-])NCc1ccccc1 [benznidazole, reference compound], which IC50 [1] is on record?
**A.** 10.4 µg/mL (≈ 40 µM)

**Q.** What about the IC50 (T. cruzi amastigotes; [6]) of the same compound?
**A.** 1.1 µg/mL (≈ 4.23 µM)

**Q.** And the IC50 [2, 7]?
**A.** 1.7 µg/mL (≈ 6.53 µM)

**Q.** What about the “reduction of area under the parasitemia curve with respect to controls” value (T. cruzi (RA strain); [8]) of the same compound?
**A.** 2.3 fold

**Q.** With C[C@@H]1[C@H](O)[C@@H](C)/C=C/C=C/C=C/C=C/C=C/C=C/C=C/[C@H](O[C@@H]2O[C@H](C)[C@@H](O)[C@H](N)[C@@H]2O)C[C@@H]2O[C@](O)(C[C@@H](O)C[C@@H](O)[C@H](O)CC[C@@H](O)C[C@@H](O)CC(=O)O[C@H]1C)C[C@H](O)[C@H]2C(=O)O [amphotericin B, reference compound] as the compound, how does the IC50 ([3]; MTT) read?
**A.** 0.26 µg/mL (≈ 0.281 µM)

**Q.** What does the source list for C=C1C(=O)OC2CC3(C)OC3CC(OC(C)=O)C3=CC(OC3=O)C12 (centres unmarked) [scandenolide]?
**A.** IC50 [1]: 68.4 µg/mL (≈ 205 µM); CC50 at 24 h [4, 9]: 864 µg/mL (≈ 2580 µM); IC50 (T. cruzi amastigotes; [6]): 60.6 µg/mL (≈ 181 µM); IC50 [2, 7]: 137 µg/mL (≈ 410 µM); activity on Trypanosoma cruzi ([2]; in words, all T. cruzi stages (abstract)): not active; IC50 ([3]; MTT): 252 µg/mL (≈ 754 µM)

**Q.** Which results are given for C[C@H]1C(=O)O[C@H]2C[C@]3(C)O[C@H]3[C@@H]3O[C@@H]3C3=C[C@@H](OC3=O)[C@@H]21 [dihydromikanolide]?
**A.** IC50 [1]: 0.3 µg/mL (≈ 1.03 µM); CC50 [5]: 13.0 µg/mL (≈ 44.5 µM); CC50 at 24 h [4, 9]: 13 µg/mL (≈ 44.4 µM); IC50 (T. cruzi amastigotes; [6]): 8.5 µg/mL (≈ 29.1 µM); IC50 [2, 7]: 2.5 µg/mL (≈ 8.55 µM); IC50 ([3]; MTT): 57.1 µg/mL (≈ 195 µM)

**Q.** Which IC50 [1] does the source give for C=C1C(=O)OC2CC3(C)OC3CCC3=CC(OC3=O)C12 (centres unmarked) [deoxymikanolide] here?
**A.** 1.5 µg/mL (≈ 5.43 µM)

**Q.** What about the IL-12 production (IL-12; 2 μg/mL) of the same compound?
**A.** slight increase

**Q.** And the IL-12 production (IL-12; 25 μg/mL)?
**A.** higher production rate

**Q.** What about the CC50 [5] of the same compound?
**A.** 79.4 µg/mL (≈ 287 µM)

**Q.** And the CC50 at 24 h [4, 9]?
**A.** 79.4 µg/mL (≈ 287 µM)

**Q.** And the IC50 (T. cruzi amastigotes; [6])?
**A.** 6.3 µg/mL (≈ 22.8 µM)

**Q.** What about the “secretion of TNF-α compared with negative control” value (TNF-α) of the same compound?
**A.** significant increase

**Q.** And the IC50 [2, 7]?
**A.** 0.08 µg/mL (≈ 0.29 µM)

**Q.** And the IC50 ([3]; MTT)?
**A.** 11.5 µg/mL (≈ 41.6 µM)

**Q.** And the “weight loss during the acute phase of infection compared to control mice” value (T. cruzi (RA strain); 20 days post infection, p = 0.028)?
**A.** able to reduce the weight loss

**Q.** And the “reduction of area under the parasitemia curve with respect to controls” value (T. cruzi (RA strain); [8])?
**A.** 1.5 fold

**Q.** And the “blood parasitemia compared to controls” value (T. cruzi (RA strain); infected Balb/c mice, 1 mg/kg/day i.p., days 4 to 8 post-infection, 1 mg/kg/day)?
**A.** decrease the parasitemia; also recorded: lower blood parasitemia

**Q.** And the “mice surviving the acute phase of infection” value (T. cruzi (RA strain); lethal T. cruzi infection, controls 100% mortality by day 22, p = 0.02 Log-rank)?
**A.** 70%

**Q.** With C=C1C(=O)OC2CC3(C)OC3C3OC3C3=CC(OC3=O)C12 (centres unmarked) [mikanolide] as the compound, how does the IC50 [1] read?
**A.** 2.1 µg/mL (≈ 7.23 µM)

**Q.** What about the CC50 at 24 h ([4]; THP1 cells) of the same compound?
**A.** 22.3 µg/mL (≈ 76.8 µM)

**Q.** And the IC50 (T. cruzi amastigotes; RAW264.7, read-out: IC50 on T. cruzi amastigotes)?
**A.** 4.5 µg/mL (≈ 15.5 µM)

**Q.** What about the IC50 [2] of the same compound?
**A.** 0.7 µg/mL (≈ 2.41 µM)

**Q.** And the IC50 [3]?
**A.** 5.1 µg/mL (≈ 17.6 µM)
